# Reference: paper PMC5856786, “A DHODH inhibitor increases p53 synthesis and enhances tumor cell killing by p53 degradation blockage” (Nature Communications, 2018)
# Counter-ions that a name gives are not always drawn.
# Molecular target: recombinant human DHODH (Homo sapiens, UniProt Q02127)
# Assay: Endpoint DHODH enzyme assay (coenzyme Q10, DCIP)
# Format: biochemical
# Design: purchased Prospecbio ENZ-642
# Details: compound at 10 µM
# Protocol: In Supplementary Tables 5 and 6, endpoint assays were performed with 10 nM recombinant human DHODH (#ENZ-642, Prospecbio). The reaction mixture consisted of 624.6 µM DL-dihydroorotic acid, 66.4 µM coenzyme Q10, 66.4 µM 2,6-dichlorophenolindophenol sodium salt (DCIP) (all reagents purchased from Sigma-Aldrich) in enzyme buffer (50 mM Tris-HCl, pH 8.0, 0.1% Triton X-100, 150 mM KCl). Loss in absorbance by DCIP was measured at 595 nm after incubation at RT for 60 min.
# [1] = Supplementary Table 6, 30,000 compound library
# [2] = Supplementary Table 5, 20,000 compound library
# Chain of recombinant human DHODH (Q02127 31-395 limits assumed): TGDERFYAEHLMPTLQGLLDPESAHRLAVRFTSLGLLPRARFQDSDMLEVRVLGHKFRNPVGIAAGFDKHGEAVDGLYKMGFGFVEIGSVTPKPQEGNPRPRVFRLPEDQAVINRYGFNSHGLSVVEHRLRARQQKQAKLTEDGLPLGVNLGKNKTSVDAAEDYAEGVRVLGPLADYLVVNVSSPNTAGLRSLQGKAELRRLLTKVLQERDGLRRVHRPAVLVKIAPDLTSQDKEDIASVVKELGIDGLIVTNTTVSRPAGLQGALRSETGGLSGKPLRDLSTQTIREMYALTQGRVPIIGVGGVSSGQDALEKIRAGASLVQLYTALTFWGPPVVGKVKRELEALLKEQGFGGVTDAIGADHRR
remaining activity at 10 µM [1],remaining activity at 10 µM [2],SMILES,further results
57.9%,,"O=[N+]([O-])c1ccc2[nH]c3c(c2c1)CCCC3NC1Cc2ccccc2C1 (centres unmarked) [compound 5781444, N-(2,3-dihydro-1H-inden-2-yl)-6-nitro-2,3,4,9-tetrahydro-1H-carbazol-1-amine]",
60.5%,,"CC1CCC(NC2CCCc3c2[nH]c2ccc([N+](=O)[O-])cc32)C1 (centres unmarked) [compound 5781446, N-(3-methylcyclopentyl)-6-nitro-2,3,4,9-tetrahydro-1H-carbazol-1-amine]",
56.8%,,"CC1CCC(NC2CCCc3c2[nH]c2ccc([N+](=O)[O-])cc32)CC1 (centres unmarked) [compound 5781447, N-(4-methylcyclohexyl)-6-nitro-2,3,4,9-tetrahydro-1H-carbazol-1-amine]",
90.2%,,"CC(C)NC1CCCc2c1[nH]c1ccc([N+](=O)[O-])cc21 (centres unmarked) [compound 5781470, N-isopropyl-6-nitro-2,3,4,9-tetrahydro-1H-carbazol-1-amine]",
101%,,"COc1ccc(C=NN2CCN(Cc3ccccc3)CC2)c(OC)c1 [compound 5783994, 4-benzyl-N-(2,4-dimethoxybenzylidene)-1-piperazinamine]",
97.6%,,"Cc1cccc(Cc2cnc(NC(=O)c3ccc(Br)cc3)s2)c1 [compound 5852371, 4-bromo-N-[5-(3-methylbenzyl)-1,3-thiazol-2-yl]benzamide]",
99.2%,,"COc1ccccc1NC(=O)C1c2ccccc2Oc2ccccc21 [compound 5867214, N-(2-methoxyphenyl)-9H-xanthene-9-carboxamide]",
27.3%,,"Cc1ccc2[nH]c3c(c2c1)CCCC3NCc1ccccc1 (centres unmarked) [compound 5869604, N-benzyl-6-methyl-2,3,4,9-tetrahydro-1H-carbazol-1-amine hydrochloride]",
99.6%,,"COc1ccc(Cl)cc1NC1=C(Cl)C(=O)N(c2cccc(C)c2C)C1=O [compound 6149306, 3-chloro-4-[(5-chloro-2-methoxyphenyl)amino]-1-(2,3-dimethylphenyl)-1H-pyrrole-2,5-dione]",
101%,,"CC(C)Oc1ccc(C(=O)NC(=S)Nc2ccc(N3CCCCC3)cc2)cc1 [compound 6497060, 4-isopropoxy-N-({[4-(1-piperidinyl)phenyl]amino}carbonothioyl)benzamide]",
84.1%,,"CCOc1ccc(NC(=S)NC(=O)c2ccc(C(C)(C)C)cc2)cc1 [compound 6501326, 4-tert-butyl-N-{[(4-ethoxyphenyl)amino]carbonothioyl}benzamide]",
97.8%,,"COc1ccc(NC(=S)NC(=O)c2ccc(C(C)(C)C)cc2)c(OC)c1 [compound 6513572, 4-tert-butyl-N-{[(2,4-dimethoxyphenyl)amino]carbonothioyl}benzamide]",
88.9%,,"CC(C)(C)c1ccc(C(=O)NC(=S)Nc2cccc([N+](=O)[O-])c2)cc1 [compound 6515740, 4-tert-butyl-N-{[(3-nitrophenyl)amino]carbonothioyl}benzamide]",
63.2%,,"CC(C)(C)c1ccc(C(=O)NC(=S)Nc2cccc(NC(=O)c3ccccc3)c2)cc1 [compound 6519439, N-({[3-(benzoylamino)phenyl]amino}carbonothioyl)-4-tert-butylbenzamide]",
,72.2%,"Cc1ccccc1NC(=S)NC(=O)c1cccc2c(Br)cccc12 [compound 6592864, 5-bromo-N-{[(2-methylphenyl)amino]carbonothioyl}-1-naphthamide]",
51%,,"Cc1cc(O)c(NC(=S)NC(=O)c2ccc(C(C)(C)C)cc2)cc1C [compound 6611243, 4-tert-butyl-N-{[(2-hydroxy-4,5-dimethylphenyl)amino]carbonothioyl}benzamide]",
,96.3%,"O=c1oc2ccccc2cc1-c1cn2cc(Cl)ccc2n1 [compound 6623100, 3-(6-chloroimidazo[1,2-a]pyridin-2-yl)-2H-chromen-2-one]",
78.8%,,"COc1cc(C=C2N=C(SC)SC2=O)cc(Br)c1OCc1ccccc1 [compound 6638116, 4-[4-(benzyloxy)-3-bromo-5-methoxybenzylidene]-2-(methylthio)-1,3-thiazol-5(4H)-one]",
74.9%,,"CSC1=NC(=Cc2ccc(OCc3ccccc3)cc2)C(=O)S1 [compound 6638197, 4-[4-(benzyloxy)benzylidene]-2-(methylthio)-1,3-thiazol-5(4H)-one]",
66%,,"c1ccc(OCCNc2ccc3ccccc3c2)cc1 [compound 6641022, 2-naphthyl(2-phenoxyethyl)amine]",

remaining activity at 10 µM [1],remaining activity at 10 µM [2],SMILES,further results
,93.2%,"COc1ccc(OC)c(C(C)NC(=O)c2ccco2)c1 (centres unmarked) [compound 6912406, N-[1-(2,5-dimethoxyphenyl)ethyl]-2-furamide]",
,79.9%,"COc1cc(CNc2ccc(C)c(Cl)c2)cc(Cl)c1OC [compound 7574753, (3-chloro-4,5-dimethoxybenzyl)(3-chloro-4-methylphenyl)amine]",
,79%,"CCN(CC)c1ccc(NC(=S)NC(=O)c2cccc(C)c2OC)cc1 [compound 7578012, N-({[4-(diethylamino)phenyl]amino}carbonothioyl)-2-methoxy-3-methylbenzamide]",
,92.7%,"CCOc1cccc2c(C)nc(Nc3nc(=O)c4c([nH]3)CCCC4)nc12 [compound 7587351, 2-[(8-ethoxy-4-methyl-2-quinazolinyl)amino]-5,6,7,8-tetrahydro-4(1H)-quinazolinone]",
,103%,"O=S(=O)(CCSc1nc2ccccc2o1)c1nc2ccccc2s1 [compound 7617239, 2-{[2-(1,3-benzothiazol-2-ylsulfonyl)ethyl]thio}-1,3-benzoxazole]",
,,"CCc1cccc(C)c1NC(=O)CSc1nc2ccccc2c(=O)n1-c1cccc2ccccc12 [compound 7638934, N-(2-ethyl-6-methylphenyl)-2-{[3-(1-naphthyl)-4-oxo-3,4-dihydro-2-quinazolinyl]thio}acetamide]",remaining DHODH activity (%) Average [2]: 72.65%
,11%,"O=C(Nc1nc2c(s1)CCCC2)C(=O)c1c[nH]c2ccccc12 [compound 7690424, 2-(1H-indol-3-yl)-2-oxo-N-(4,5,6,7-tetrahydro-1,3-benzothiazol-2-yl)acetamide]",
,,"CC1=C(C(=O)Nc2ccc(F)cc2)C(c2ccccc2OCc2ccccc2)C2=C(CCCC2=O)N1 (centres unmarked) [compound 7705624, 4-[2-(benzyloxy)phenyl]-N-(4-fluorophenyl)-2-methyl-5-oxo-1,4,5,6,7,8-hexahydro-3-quinolinecarboxamide]",remaining DHODH activity (%) Average [2]: 104.27%
,,"CCOC(=O)C1=C(C)NC2=C(C(=O)CC(c3ccco3)C2)C1c1cccs1 (centres unmarked) [compound 7706732, ethyl 7-(2-furyl)-2-methyl-5-oxo-4-(2-thienyl)-1,4,5,6,7,8-hexahydro-3-quinolinecarboxylate]",remaining DHODH activity (%) Average [2]: 95.89%
,98.2%,"CCOc1cc(C=Cc2ccc3cccc(OC(=O)CC)c3n2)ccc1OC(=O)CC [compound 7706999, 2-{2-[3-ethoxy-4-(propionyloxy)phenyl]vinyl}-8-quinolinyl propionate]",
,-8.22%,"Cc1ccc(CSCC(=O)Nc2ccccc2C(=O)O)cc1 [compound 7723007, 2-({[(4-methylbenzyl)thio]acetyl}amino)benzoic acid]",
,98.2%,"O=C(Nc1cc(C(F)(F)F)cc(C(F)(F)F)c1)c1c(F)c(F)c(F)c(F)c1F [compound 7739721, N-[3,5-bis(trifluoromethyl)phenyl]-2,3,4,5,6-pentafluorobenzamide]",
,77.3%,"Oc1ccccc1-c1nc(C=Cc2cccs2)n[nH]1 [compound 7776857, 2-{3-[2-(2-thienyl)vinyl]-1H-1,2,4-triazol-5-yl}phenol]",
,73.5%,"Cc1cc(O)ccc1NC(=O)c1ccc(-c2ccccc2)cc1 [compound 7782544, N-(4-hydroxy-2-methylphenyl)-4-biphenylcarboxamide]",
,92.2%,"NC(=O)c1ccccc1NC(=O)Nc1ccccc1C(F)(F)F [compound 7794325, 2-[({[2-(trifluoromethyl)phenyl]amino}carbonyl)amino]benzamide]",
,88.1%,"CC(C)Oc1ccccc1C1CC(=O)Nc2cc3c(cc21)OCCO3 (centres unmarked) [compound 7800701, 9-(2-isopropoxyphenyl)-2,3,8,9-tetrahydro[1,4]dioxino[2,3-g]quinolin-7(6H)-one]",
,100%,"COC(=O)c1cccc(NC(=S)Nc2cc(Cl)ccc2OC)c1 [compound 7801595, methyl 3-({[(5-chloro-2-methoxyphenyl)amino]carbonothioyl}amino)benzoate]",
,103%,"O=C1CC(c2ccccc2OCc2ccccc2)c2cc3c(cc2N1)OCCO3 (centres unmarked) [compound 7834586, 9-[2-(benzyloxy)phenyl]-2,3,8,9-tetrahydro[1,4]dioxino[2,3-g]quinolin-7(6H)-one]",
,3.65%,"Cc1cc(=O)oc2cc(NC(=S)N3c4ccccc4CC3C)ccc12 (centres unmarked) [compound 7841649, 2-methyl-N-(4-methyl-2-oxo-2H-chromen-7-yl)-1-indolinecarbothioamide]",

SMILES,remaining activity at 10 µM [1],remaining activity at 10 µM [2],further results
"COc1ccccc1CC(C)NC1CCCc2c1[nH]c1ccc([N+](=O)[O-])cc21 (centres unmarked) [compound 5781453, N-[2-(2-methoxyphenyl)-1-methylethyl]-6-nitro-2,3,4,9-tetrahydro-1H-carbazol-1-amine]",52.4%,,
"CC(Cc1ccccc1F)NC1CCCc2c1[nH]c1ccc([N+](=O)[O-])cc21 (centres unmarked) [compound 5781454, N-[2-(2-fluorophenyl)-1-methylethyl]-6-nitro-2,3,4,9-tetrahydro-1H-carbazol-1-amine]",55.4%,,
